Test results: publication PMC7385619, “A triple action CDK4/6-PI3K-BET inhibitor with augmented cancer cell cytotoxicity” (Cell Discovery, 2020)

Experiments:
Test in all cases: KINOMEscan assay (Eurofins DiscoverX)
Format in all cases: binding
[1] = target: T1, kinome (kinase panel) (Homo sapiens, UniProt Q8NI60); conditions: ADCK3 (Entrez CABC1); 1000 nM; read-out: Percent Control
T1 construct: purchased Eurofins DiscoverX

[2] = target: T2, kinome (kinase panel) (Homo sapiens, UniProt P00533, G719S); conditions: […]; 1000 nM; read-out: Percent Control
T2 construct: purchased Eurofins DiscoverX

[3] = target: T3, kinome (kinase panel) (Homo sapiens, UniProt P42345); conditions: MTOR; 1000 nM; read-out: Percent Control
T3 construct: purchased Eurofins DiscoverX

[4] = target: T4, kinome (kinase panel) (Homo sapiens, UniProt P08581, Y1235D); conditions: […]; 1000 nM; read-out: Percent Control
T4 construct: purchased Eurofins DiscoverX

[5] = target: T5, kinome (kinase panel) (Homo sapiens, UniProt P06241); conditions: FYN; 1000 nM; read-out: Percent Control
T5 construct: purchased Eurofins DiscoverX

[6] = target: T6, kinome (kinase panel) (Homo sapiens, UniProt Q12852); conditions: DLK (Entrez MAP3K12); 1000 nM; read-out: Percent Control
T6 construct: purchased Eurofins DiscoverX
T6 sequence (Q12852 whole entry): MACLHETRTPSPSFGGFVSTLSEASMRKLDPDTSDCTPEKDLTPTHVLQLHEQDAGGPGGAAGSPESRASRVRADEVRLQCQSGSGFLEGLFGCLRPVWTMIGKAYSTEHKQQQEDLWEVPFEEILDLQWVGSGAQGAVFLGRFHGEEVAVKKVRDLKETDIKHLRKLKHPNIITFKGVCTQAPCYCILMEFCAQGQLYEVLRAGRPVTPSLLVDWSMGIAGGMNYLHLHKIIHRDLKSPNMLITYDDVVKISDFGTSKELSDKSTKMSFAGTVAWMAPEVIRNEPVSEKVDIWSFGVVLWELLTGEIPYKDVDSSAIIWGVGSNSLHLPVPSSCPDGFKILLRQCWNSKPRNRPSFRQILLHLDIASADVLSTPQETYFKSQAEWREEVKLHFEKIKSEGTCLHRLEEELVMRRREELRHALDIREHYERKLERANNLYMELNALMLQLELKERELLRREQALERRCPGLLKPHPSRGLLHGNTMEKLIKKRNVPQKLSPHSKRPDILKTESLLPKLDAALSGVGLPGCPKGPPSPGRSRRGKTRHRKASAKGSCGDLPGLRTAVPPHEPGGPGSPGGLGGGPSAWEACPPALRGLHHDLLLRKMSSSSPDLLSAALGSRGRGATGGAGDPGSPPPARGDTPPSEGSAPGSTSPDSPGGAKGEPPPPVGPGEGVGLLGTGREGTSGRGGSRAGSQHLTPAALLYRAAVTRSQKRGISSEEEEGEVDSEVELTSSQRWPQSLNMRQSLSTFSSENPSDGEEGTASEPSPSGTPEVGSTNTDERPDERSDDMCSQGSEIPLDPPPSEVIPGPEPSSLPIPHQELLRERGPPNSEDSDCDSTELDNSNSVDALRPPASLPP

[7] = target: T7, kinome (kinase panel) (Homo sapiens, UniProt P00519, M351T); conditions: read-out: Percent Control
T7 construct: purchased Eurofins DiscoverX

[8] = target: T8, kinome (kinase panel) (Homo sapiens, UniProt O14578); conditions: CIT; 1000 nM; read-out: Percent Control
T8 construct: purchased Eurofins DiscoverX

[9] = target: T9, kinome (kinase panel) (Homo sapiens, UniProt P23443); conditions: S6K1 (RPS6KB1); 1000 nM; read-out: Percent Control
T9 construct: purchased Eurofins DiscoverX

[10] = target: T10, kinome (kinase panel) (Homo sapiens, UniProt P04626); conditions: ERBB2; 1000 nM; read-out: Percent Control
T10 construct: purchased Eurofins DiscoverX

[11] = target: T11, kinome (kinase panel) (Homo sapiens, UniProt Q9H093); conditions: SNARK (NUAK2); 1000 nM; read-out: Percent Control
T11 construct: purchased Eurofins DiscoverX

[12] = target: T12, kinome (kinase panel) (Homo sapiens, UniProt P52564); conditions: MEK6 (Entrez MAP2K6); 1000 nM; read-out: Percent Control
T12 construct: purchased Eurofins DiscoverX

[13] = target: T13, kinome (kinase panel) (Homo sapiens, UniProt Q9BYT3); conditions: STK33; 1000 nM; read-out: Percent Control
T13 construct: purchased Eurofins DiscoverX
T13 sequence (Q9BYT3 whole entry): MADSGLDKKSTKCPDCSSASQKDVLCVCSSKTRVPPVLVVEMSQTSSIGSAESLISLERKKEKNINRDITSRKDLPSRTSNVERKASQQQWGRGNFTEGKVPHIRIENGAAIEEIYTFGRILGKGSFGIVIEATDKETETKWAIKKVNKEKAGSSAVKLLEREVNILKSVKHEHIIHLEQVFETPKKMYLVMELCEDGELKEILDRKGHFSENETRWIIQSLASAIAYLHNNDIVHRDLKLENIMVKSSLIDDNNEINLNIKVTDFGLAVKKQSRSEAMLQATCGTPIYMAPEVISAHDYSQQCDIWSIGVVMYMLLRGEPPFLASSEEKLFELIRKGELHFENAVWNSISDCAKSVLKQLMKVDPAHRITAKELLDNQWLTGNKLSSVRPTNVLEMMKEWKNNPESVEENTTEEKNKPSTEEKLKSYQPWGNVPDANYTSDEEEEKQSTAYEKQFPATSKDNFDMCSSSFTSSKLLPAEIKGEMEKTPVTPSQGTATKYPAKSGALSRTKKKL

[14] = target: T14, kinome (kinase panel) (Homo sapiens, UniProt P09769); conditions: FGR; 1000 nM; read-out: Percent Control
T14 construct: purchased Eurofins DiscoverX

[15] = target: T15, kinome (kinase panel) (Homo sapiens, UniProt P00533, L858R); conditions: […]; 1000 nM; read-out: Percent Control
T15 construct: purchased Eurofins DiscoverX

[16] = target: T16, kinome (kinase panel) (Homo sapiens, UniProt Q07002); conditions: PCTK3 (Entrez CDK18); 1000 nM; read-out: Percent Control
T16 construct: purchased Eurofins DiscoverX

[17] = target: T17, kinome (kinase panel) (Homo sapiens, UniProt Q9Y2K2); conditions: QSK (Entrez KIAA0999); 1000 nM; read-out: Percent Control
T17 construct: purchased Eurofins DiscoverX
T17 sequence (Q9Y2K2 whole entry): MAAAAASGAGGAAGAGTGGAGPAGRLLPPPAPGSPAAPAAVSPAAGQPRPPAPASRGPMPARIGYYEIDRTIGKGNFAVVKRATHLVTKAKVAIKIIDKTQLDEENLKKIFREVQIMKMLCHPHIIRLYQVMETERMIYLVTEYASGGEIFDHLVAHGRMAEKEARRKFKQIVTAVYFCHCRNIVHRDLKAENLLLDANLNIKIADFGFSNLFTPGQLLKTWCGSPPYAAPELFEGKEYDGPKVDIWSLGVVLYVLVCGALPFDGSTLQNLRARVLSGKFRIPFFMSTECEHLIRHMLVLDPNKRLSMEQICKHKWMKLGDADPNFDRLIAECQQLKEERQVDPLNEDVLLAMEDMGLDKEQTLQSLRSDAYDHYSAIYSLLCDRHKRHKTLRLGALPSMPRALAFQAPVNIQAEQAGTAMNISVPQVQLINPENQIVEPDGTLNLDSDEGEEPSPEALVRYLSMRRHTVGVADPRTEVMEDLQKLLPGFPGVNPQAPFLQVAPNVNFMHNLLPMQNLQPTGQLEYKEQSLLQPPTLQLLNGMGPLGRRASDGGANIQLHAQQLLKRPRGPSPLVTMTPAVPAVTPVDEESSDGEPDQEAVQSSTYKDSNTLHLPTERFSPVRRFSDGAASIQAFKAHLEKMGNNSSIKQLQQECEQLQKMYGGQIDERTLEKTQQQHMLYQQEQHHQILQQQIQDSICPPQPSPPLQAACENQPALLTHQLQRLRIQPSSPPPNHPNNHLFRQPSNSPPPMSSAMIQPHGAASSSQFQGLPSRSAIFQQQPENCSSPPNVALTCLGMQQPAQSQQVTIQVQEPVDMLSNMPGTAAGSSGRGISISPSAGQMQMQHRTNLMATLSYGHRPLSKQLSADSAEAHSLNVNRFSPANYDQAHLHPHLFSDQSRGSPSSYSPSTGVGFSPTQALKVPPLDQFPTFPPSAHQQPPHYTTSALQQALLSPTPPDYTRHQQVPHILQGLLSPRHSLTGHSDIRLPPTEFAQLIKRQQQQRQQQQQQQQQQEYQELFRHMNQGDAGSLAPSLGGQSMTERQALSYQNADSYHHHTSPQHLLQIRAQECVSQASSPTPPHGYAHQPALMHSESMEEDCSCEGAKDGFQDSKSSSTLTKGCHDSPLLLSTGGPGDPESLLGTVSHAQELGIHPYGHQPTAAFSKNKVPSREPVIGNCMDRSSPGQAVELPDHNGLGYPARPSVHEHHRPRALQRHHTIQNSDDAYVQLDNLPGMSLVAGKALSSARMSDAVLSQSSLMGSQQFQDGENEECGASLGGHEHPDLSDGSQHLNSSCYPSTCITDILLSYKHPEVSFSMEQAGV

[18] = target: T18, kinome (kinase panel) (Homo sapiens, UniProt O95382); conditions: ASK2 (Entrez MAP3K6); 1000 nM; read-out: Percent Control
T18 construct: purchased Eurofins DiscoverX

[19] = target: T19, kinome (kinase panel) (Homo sapiens, UniProt P29317); conditions: EPHA2; 1000 nM; read-out: Percent Control
T19 construct: purchased Eurofins DiscoverX

[20] = target: T20, kinome (kinase panel) (Homo sapiens, UniProt Q92630); conditions: DYRK2; 1000 nM; read-out: Percent Control
T20 construct: purchased Eurofins DiscoverX
T20 sequence (Q92630 whole entry): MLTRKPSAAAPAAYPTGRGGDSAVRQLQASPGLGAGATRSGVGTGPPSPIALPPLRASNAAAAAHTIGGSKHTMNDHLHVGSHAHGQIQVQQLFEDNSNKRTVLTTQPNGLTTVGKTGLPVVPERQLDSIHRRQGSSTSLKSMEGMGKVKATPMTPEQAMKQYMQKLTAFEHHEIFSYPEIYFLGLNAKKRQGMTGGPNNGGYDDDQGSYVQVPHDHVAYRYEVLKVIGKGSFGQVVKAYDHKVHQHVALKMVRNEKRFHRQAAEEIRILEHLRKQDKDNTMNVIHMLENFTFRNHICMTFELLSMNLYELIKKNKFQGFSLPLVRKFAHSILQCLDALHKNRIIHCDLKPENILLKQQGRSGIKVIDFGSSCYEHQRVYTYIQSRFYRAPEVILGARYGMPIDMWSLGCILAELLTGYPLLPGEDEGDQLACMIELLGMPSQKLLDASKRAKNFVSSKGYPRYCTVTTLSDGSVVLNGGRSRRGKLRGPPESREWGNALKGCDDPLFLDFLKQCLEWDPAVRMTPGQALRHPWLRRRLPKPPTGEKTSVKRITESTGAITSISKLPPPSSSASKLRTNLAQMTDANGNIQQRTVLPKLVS

[21] = target: T21, kinome (kinase panel) (Homo sapiens, UniProt Q7KZI7); conditions: MARK2; 1000 nM; read-out: Percent Control
T21 construct: purchased Eurofins DiscoverX

[22] = target: T22, kinome (kinase panel) (Homo sapiens, UniProt Q86V86); conditions: PIM3; 1000 nM; read-out: Percent Control
T22 construct: purchased Eurofins DiscoverX

[23] = target: T23, kinome (kinase panel) (Homo sapiens, UniProt Q16584); conditions: MLK3 (Entrez MAP3K11); 1000 nM; read-out: Percent Control
T23 construct: purchased Eurofins DiscoverX
T23 sequence (Q16584 whole entry): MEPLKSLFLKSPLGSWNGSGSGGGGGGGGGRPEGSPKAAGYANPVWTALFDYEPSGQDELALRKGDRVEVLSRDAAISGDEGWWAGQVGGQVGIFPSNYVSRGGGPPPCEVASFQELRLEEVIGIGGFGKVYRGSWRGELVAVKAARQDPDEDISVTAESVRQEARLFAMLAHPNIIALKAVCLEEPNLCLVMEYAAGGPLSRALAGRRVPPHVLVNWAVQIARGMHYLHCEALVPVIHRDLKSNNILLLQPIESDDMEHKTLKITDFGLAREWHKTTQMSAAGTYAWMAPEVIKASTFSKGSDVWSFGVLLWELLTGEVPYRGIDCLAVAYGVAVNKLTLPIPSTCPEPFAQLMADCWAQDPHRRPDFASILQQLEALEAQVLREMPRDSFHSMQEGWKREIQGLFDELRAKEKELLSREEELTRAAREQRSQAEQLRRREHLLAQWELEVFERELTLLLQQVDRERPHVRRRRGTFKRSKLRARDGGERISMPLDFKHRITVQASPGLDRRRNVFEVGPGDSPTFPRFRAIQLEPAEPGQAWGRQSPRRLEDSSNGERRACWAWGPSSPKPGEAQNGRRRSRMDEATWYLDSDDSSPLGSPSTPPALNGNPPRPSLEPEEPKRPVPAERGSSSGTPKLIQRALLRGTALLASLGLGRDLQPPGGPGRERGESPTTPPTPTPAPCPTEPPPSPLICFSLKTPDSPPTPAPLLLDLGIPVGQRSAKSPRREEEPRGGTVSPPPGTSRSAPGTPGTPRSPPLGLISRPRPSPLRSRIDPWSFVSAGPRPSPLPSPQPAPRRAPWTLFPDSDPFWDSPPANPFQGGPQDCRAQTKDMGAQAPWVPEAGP

[24] = target: T24, kinome (kinase panel) (Homo sapiens, UniProt P42684); conditions: ABL2; 1000 nM; read-out: Percent Control
T24 construct: purchased Eurofins DiscoverX

[25] = target: T25, kinome (kinase panel) (Homo sapiens, UniProt Q9HCP0); conditions: CSNK1G1; 1000 nM; read-out: Percent Control
T25 construct: purchased Eurofins DiscoverX
T25 sequence (Q9HCP0 whole entry): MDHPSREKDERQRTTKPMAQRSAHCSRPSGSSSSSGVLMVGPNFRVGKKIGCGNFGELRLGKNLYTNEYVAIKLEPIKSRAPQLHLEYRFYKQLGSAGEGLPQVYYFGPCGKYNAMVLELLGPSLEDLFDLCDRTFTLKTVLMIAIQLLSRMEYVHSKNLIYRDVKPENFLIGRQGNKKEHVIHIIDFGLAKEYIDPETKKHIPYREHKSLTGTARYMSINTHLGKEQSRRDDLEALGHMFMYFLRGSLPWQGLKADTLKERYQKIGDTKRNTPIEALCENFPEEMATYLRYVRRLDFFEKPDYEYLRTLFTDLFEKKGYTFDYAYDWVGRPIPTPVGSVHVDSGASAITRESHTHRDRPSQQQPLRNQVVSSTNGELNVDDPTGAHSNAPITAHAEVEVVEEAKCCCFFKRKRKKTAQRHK

[26] = target: T26, kinome (kinase panel) (Homo sapiens, UniProt P28482); conditions: ERK2 (Entrez MAPK1); 1000 nM; read-out: Percent Control
T26 construct: purchased Eurofins DiscoverX
T26 sequence (P28482 whole entry): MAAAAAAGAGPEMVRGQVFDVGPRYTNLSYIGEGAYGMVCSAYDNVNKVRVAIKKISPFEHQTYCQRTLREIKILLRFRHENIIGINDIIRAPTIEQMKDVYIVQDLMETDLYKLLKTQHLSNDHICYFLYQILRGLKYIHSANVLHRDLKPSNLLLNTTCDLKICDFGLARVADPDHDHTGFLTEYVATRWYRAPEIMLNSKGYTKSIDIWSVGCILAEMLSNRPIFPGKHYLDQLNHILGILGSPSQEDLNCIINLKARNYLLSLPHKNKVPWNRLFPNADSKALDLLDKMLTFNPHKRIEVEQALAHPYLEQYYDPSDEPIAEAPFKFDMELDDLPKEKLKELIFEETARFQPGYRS

[27] = target: T27, kinome (kinase panel) (Homo sapiens, UniProt Q13555); conditions: CAMK2G; 1000 nM; read-out: Percent Control
T27 construct: purchased Eurofins DiscoverX

[28] = target: T28, kinome (kinase panel) (Homo sapiens, UniProt P48736); conditions: PIK3CG; 1000 nM; read-out: Percent Control
T28 construct: purchased Eurofins DiscoverX

[29] = target: T29, kinome (kinase panel) (Homo sapiens, UniProt O14757); conditions: CHEK1; 1000 nM; read-out: Percent Control
T29 construct: purchased Eurofins DiscoverX

[30] = target: T30, kinome (kinase panel) (Homo sapiens, UniProt P36888, K663Q); conditions: […]; 1000 nM; read-out: Percent Control
T30 construct: purchased Eurofins DiscoverX

[31] = target: T31, kinome (kinase panel) (Homo sapiens, UniProt Q32MK0); conditions: MLCK (Entrez MYLK3); 1000 nM; read-out: Percent Control
T31 construct: purchased Eurofins DiscoverX

[32] = target: T32, kinome (kinase panel) (Homo sapiens, UniProt P30530); conditions: AXL; 1000 nM; read-out: Percent Control
T32 construct: purchased Eurofins DiscoverX

[33] = target: T33, kinome (kinase panel) (Homo sapiens, UniProt Q13557); conditions: CAMK2D; 1000 nM; read-out: Percent Control
T33 construct: purchased Eurofins DiscoverX

CN(C)C(=O)c1cc2cnc(Nc3ccc(-c4csc5c(=O)cc(N6CCOCC6)oc45)cc3)nc2n1C1CCCC1 [SRX3177] showed a remaining binding at 1 µM [1] of 99%, a remaining binding at 1 µM [2] of 78% and a remaining binding at 1 µM [3] of 79%. The remaining binding at 1 µM [4] was 100%, the remaining binding at 1 µM [5] was 96% and the remaining binding at 1 µM [6] was 73%. It also gave a remaining binding at 1 µM [7] of 49%, a remaining binding at 1 µM [8] of 84% and a remaining binding at 1 µM [9] of 95%. For the same molecule, the remaining binding at 1 µM [10] was 76%, the remaining binding at 1 µM [11] was 70% and the remaining binding at 1 µM [12] was 100%. The remaining binding at 1 µM [13] was 98%, the remaining binding at 1 µM [14] was 97% and the remaining binding at 1 µM [15] was 100%. For the same molecule, the remaining binding at 1 µM [16] was 74%, the remaining binding at 1 µM [17] was 59% and the remaining binding at 1 µM [18] was 91%. It also gave a remaining binding at 1 µM [19] of 76%, a remaining binding at 1 µM [20] of 69% and a remaining binding at 1 µM [21] of 96%. It also gave a remaining binding at 1 µM [22] of 78%, a remaining binding at 1 µM [23] of 73% and a remaining binding at 1 µM [24] of 81%. The remaining binding at 1 µM [25] was 82%, the remaining binding at 1 µM [26] was 100% and the remaining binding at 1 µM [27] was 65%. For the same molecule, the remaining binding at 1 µM [28] was 85%, the remaining binding at 1 µM [29] was 100% and the remaining binding at 1 µM [30] was 93%. It also gave a remaining binding at 1 µM [31] of 100%, a remaining binding at 1 µM [32] of 89% and a remaining binding at 1 µM [33] of 65%.
